Experimental data: BigSolDB 2.1

CCOC(=O)Cc1c(C(=O)OCC)sc(N(CC(=O)OCC)CC(=O)OCC)c1C#N
solubility (mole fraction) (in acetone, 283.15 K): 0.0364
solubility (mole fraction) (in acetone, 285.65 K): 0.0394
solubility (mole fraction) (in acetone, 288.15 K): 0.043
solubility (mole fraction) (in acetone, 290.65 K): 0.0456
solubility (mole fraction) (in acetone, 293.15 K): 0.0498
solubility (mole fraction) (in acetone, 295.65 K): 0.0538
solubility (mole fraction) (in acetone, 298.15 K): 0.0582
solubility (mole fraction) (in acetone, 300.65 K): 0.0627
solubility (mole fraction) (in acetone, 303.15 K): 0.0672
solubility (mole fraction) (in acetone, 305.65 K): 0.073
solubility (mole fraction) (in acetone, 308.15 K): 0.079
solubility (mole fraction) (in acetone, 310.65 K): 0.0853
solubility (mole fraction) (in acetone, 313.15 K): 0.0921
solubility (mole fraction) (in acetone, 315.65 K): 0.0995
solubility (mole fraction) (in acetone, 318.15 K): 0.107
solubility (mole fraction) (in acetone, 320.65 K): 0.116
solubility (mole fraction) (in acetone, 323.15 K): 0.126
solubility (mole fraction) (in acetonitrile, 283.15 K): 0.0196
solubility (mole fraction) (in acetonitrile, 285.65 K): 0.0211
solubility (mole fraction) (in acetonitrile, 288.15 K): 0.0234
solubility (mole fraction) (in acetonitrile, 290.65 K): 0.0255
solubility (mole fraction) (in acetonitrile, 293.15 K): 0.028
solubility (mole fraction) (in acetonitrile, 295.65 K): 0.0303
solubility (mole fraction) (in acetonitrile, 298.15 K): 0.0334
solubility (mole fraction) (in acetonitrile, 300.65 K): 0.0365
solubility (mole fraction) (in acetonitrile, 303.15 K): 0.0396
solubility (mole fraction) (in acetonitrile, 305.65 K): 0.0433
solubility (mole fraction) (in acetonitrile, 308.15 K): 0.0473
solubility (mole fraction) (in acetonitrile, 310.65 K): 0.0515
solubility (mole fraction) (in acetonitrile, 313.15 K): 0.0562
solubility (mole fraction) (in acetonitrile, 315.65 K): 0.0612
solubility (mole fraction) (in acetonitrile, 318.15 K): 0.067
solubility (mole fraction) (in acetonitrile, 320.65 K): 0.0734
solubility (mole fraction) (in acetonitrile, 323.15 K): 0.0805
solubility (mole fraction) (in cyclohexane, 283.15 K): 5.19e-05
solubility (mole fraction) (in cyclohexane, 285.65 K): 6.04e-05
solubility (mole fraction) (in cyclohexane, 288.15 K): 7.21e-05
solubility (mole fraction) (in cyclohexane, 290.65 K): 8.6e-05
solubility (mole fraction) (in cyclohexane, 293.15 K): 0.000102
solubility (mole fraction) (in cyclohexane, 295.65 K): 0.00012
solubility (mole fraction) (in cyclohexane, 298.15 K): 0.000142
solubility (mole fraction) (in cyclohexane, 300.65 K): 0.00017
solubility (mole fraction) (in cyclohexane, 303.15 K): 0.000199
solubility (mole fraction) (in cyclohexane, 305.65 K): 0.000236
solubility (mole fraction) (in cyclohexane, 308.15 K): 0.000279
solubility (mole fraction) (in cyclohexane, 310.65 K): 0.000324
solubility (mole fraction) (in cyclohexane, 313.15 K): 0.00038
solubility (mole fraction) (in cyclohexane, 315.65 K): 0.000444
solubility (mole fraction) (in cyclohexane, 318.15 K): 0.000516
solubility (mole fraction) (in cyclohexane, 320.65 K): 0.000596
solubility (mole fraction) (in cyclohexane, 323.15 K): 0.0007
solubility (mole fraction) (in ethanol, 283.15 K): 0.000512
solubility (mole fraction) (in ethanol, 285.65 K): 0.000635
solubility (mole fraction) (in ethanol, 288.15 K): 0.00079
solubility (mole fraction) (in ethanol, 290.65 K): 0.000971
solubility (mole fraction) (in ethanol, 293.15 K): 0.0012
solubility (mole fraction) (in ethanol, 295.65 K): 0.00148
solubility (mole fraction) (in ethanol, 298.15 K): 0.00178
solubility (mole fraction) (in ethanol, 300.65 K): 0.00216
solubility (mole fraction) (in ethanol, 303.15 K): 0.00264
solubility (mole fraction) (in ethanol, 305.65 K): 0.0032
solubility (mole fraction) (in ethanol, 308.15 K): 0.0038
solubility (mole fraction) (in ethanol, 310.65 K): 0.00457
solubility (mole fraction) (in ethanol, 313.15 K): 0.00543
solubility (mole fraction) (in ethanol, 315.65 K): 0.00645
solubility (mole fraction) (in ethanol, 318.15 K): 0.00768
solubility (mole fraction) (in ethanol, 320.65 K): 0.00904
solubility (mole fraction) (in ethanol, 323.15 K): 0.0107
solubility (mole fraction) (in ethyl acetate, 283.15 K): 0.0224
solubility (mole fraction) (in ethyl acetate, 285.65 K): 0.0259
solubility (mole fraction) (in ethyl acetate, 288.15 K): 0.0296
solubility (mole fraction) (in ethyl acetate, 290.65 K): 0.0339
solubility (mole fraction) (in ethyl acetate, 293.15 K): 0.0389
solubility (mole fraction) (in ethyl acetate, 295.65 K): 0.0442
solubility (mole fraction) (in ethyl acetate, 298.15 K): 0.0509
solubility (mole fraction) (in ethyl acetate, 300.65 K): 0.0578
solubility (mole fraction) (in ethyl acetate, 303.15 K): 0.066
solubility (mole fraction) (in ethyl acetate, 305.65 K): 0.0741
solubility (mole fraction) (in ethyl acetate, 308.15 K): 0.083
solubility (mole fraction) (in ethyl acetate, 310.65 K): 0.0927
solubility (mole fraction) (in ethyl acetate, 313.15 K): 0.105
solubility (mole fraction) (in ethyl acetate, 315.65 K): 0.118
solubility (mole fraction) (in ethyl acetate, 318.15 K): 0.132
solubility (mole fraction) (in ethyl acetate, 320.65 K): 0.146
solubility (mole fraction) (in ethyl acetate, 323.15 K): 0.163
solubility (mole fraction) (in isopropanol, 283.15 K): 0.000243
solubility (mole fraction) (in isopropanol, 285.65 K): 0.000308
solubility (mole fraction) (in isopropanol, 288.15 K): 0.000386
solubility (mole fraction) (in isopropanol, 290.65 K): 0.000478
solubility (mole fraction) (in isopropanol, 293.15 K): 0.000592
solubility (mole fraction) (in isopropanol, 295.65 K): 0.000736
solubility (mole fraction) (in isopropanol, 298.15 K): 0.00091
solubility (mole fraction) (in isopropanol, 300.65 K): 0.00111
solubility (mole fraction) (in isopropanol, 303.15 K): 0.00135
solubility (mole fraction) (in isopropanol, 305.65 K): 0.00162
solubility (mole fraction) (in isopropanol, 308.15 K): 0.00197
solubility (mole fraction) (in isopropanol, 310.65 K): 0.00236
solubility (mole fraction) (in isopropanol, 313.15 K): 0.00286
solubility (mole fraction) (in isopropanol, 315.65 K): 0.00345
solubility (mole fraction) (in isopropanol, 318.15 K): 0.00413
solubility (mole fraction) (in isopropanol, 320.65 K): 0.00494
solubility (mole fraction) (in isopropanol, 323.15 K): 0.00588
solubility (mole fraction) (in methanol, 283.15 K): 0.0012
solubility (mole fraction) (in methanol, 285.65 K): 0.00149
solubility (mole fraction) (in methanol, 288.15 K): 0.0018
solubility (mole fraction) (in methanol, 290.65 K): 0.0022
solubility (mole fraction) (in methanol, 293.15 K): 0.00265
solubility (mole fraction) (in methanol, 295.65 K): 0.00326
solubility (mole fraction) (in methanol, 298.15 K): 0.00391
solubility (mole fraction) (in methanol, 300.65 K): 0.00464
solubility (mole fraction) (in methanol, 303.15 K): 0.00556
solubility (mole fraction) (in methanol, 305.65 K): 0.00659
solubility (mole fraction) (in methanol, 308.15 K): 0.00781
solubility (mole fraction) (in methanol, 310.65 K): 0.00925
solubility (mole fraction) (in methanol, 313.15 K): 0.0109
solubility (mole fraction) (in methanol, 315.65 K): 0.0128
solubility (mole fraction) (in methanol, 318.15 K): 0.015
solubility (mole fraction) (in methanol, 320.65 K): 0.0174
solubility (mole fraction) (in methanol, 323.15 K): 0.0198
solubility (mole fraction) (in n-butanol, 283.15 K): 0.000391
solubility (mole fraction) (in n-butanol, 285.65 K): 0.000489
solubility (mole fraction) (in n-butanol, 288.15 K): 0.000608
solubility (mole fraction) (in n-butanol, 290.65 K): 0.000753
solubility (mole fraction) (in n-butanol, 293.15 K): 0.00094
solubility (mole fraction) (in n-butanol, 295.65 K): 0.00115
solubility (mole fraction) (in n-butanol, 298.15 K): 0.0014
solubility (mole fraction) (in n-butanol, 300.65 K): 0.00173
solubility (mole fraction) (in n-butanol, 303.15 K): 0.00215
solubility (mole fraction) (in n-butanol, 305.65 K): 0.00259
solubility (mole fraction) (in n-butanol, 308.15 K): 0.00316
solubility (mole fraction) (in n-butanol, 310.65 K): 0.0039
solubility (mole fraction) (in n-butanol, 313.15 K): 0.0047
solubility (mole fraction) (in n-butanol, 315.65 K): 0.00577
solubility (mole fraction) (in n-butanol, 318.15 K): 0.00696
solubility (mole fraction) (in n-butanol, 320.65 K): 0.00838
solubility (mole fraction) (in n-butanol, 323.15 K): 0.0102
solubility (mole fraction) (in n-propanol, 283.15 K): 0.000617
solubility (mole fraction) (in n-propanol, 285.65 K): 0.000762
solubility (mole fraction) (in n-propanol, 288.15 K): 0.000953
solubility (mole fraction) (in n-propanol, 290.65 K): 0.00118
solubility (mole fraction) (in n-propanol, 293.15 K): 0.00146
solubility (mole fraction) (in n-propanol, 295.65 K): 0.0018
solubility (mole fraction) (in n-propanol, 298.15 K): 0.00219
solubility (mole fraction) (in n-propanol, 300.65 K): 0.00266
solubility (mole fraction) (in n-propanol, 303.15 K): 0.00327
solubility (mole fraction) (in n-propanol, 305.65 K): 0.00403
solubility (mole fraction) (in n-propanol, 308.15 K): 0.00492
solubility (mole fraction) (in n-propanol, 310.65 K): 0.006
solubility (mole fraction) (in n-propanol, 313.15 K): 0.00722
solubility (mole fraction) (in n-propanol, 315.65 K): 0.00868
solubility (mole fraction) (in n-propanol, 318.15 K): 0.0104
solubility (mole fraction) (in n-propanol, 320.65 K): 0.0126
solubility (mole fraction) (in n-propanol, 323.15 K): 0.015
solubility (mole fraction) (in toluene, 283.15 K): 0.0122
solubility (mole fraction) (in toluene, 285.65 K): 0.014
solubility (mole fraction) (in toluene, 288.15 K): 0.0162
solubility (mole fraction) (in toluene, 290.65 K): 0.0187
solubility (mole fraction) (in toluene, 293.15 K): 0.0216
solubility (mole fraction) (in toluene, 295.65 K): 0.0249
solubility (mole fraction) (in toluene, 298.15 K): 0.0286
solubility (mole fraction) (in toluene, 300.65 K): 0.0328
solubility (mole fraction) (in toluene, 303.15 K): 0.0379
solubility (mole fraction) (in toluene, 305.65 K): 0.0434
solubility (mole fraction) (in toluene, 308.15 K): 0.0498
solubility (mole fraction) (in toluene, 310.65 K): 0.0567
solubility (mole fraction) (in toluene, 313.15 K): 0.0647
solubility (mole fraction) (in toluene, 315.65 K): 0.0737
solubility (mole fraction) (in toluene, 318.15 K): 0.0835
solubility (mole fraction) (in toluene, 320.65 K): 0.0946
solubility (mole fraction) (in toluene, 323.15 K): 0.107
